Results from patent publication US9090662B2, “Dithioamine reducing agents” (WISCONSIN ALUMNI RESEARCH FOUNDATION, priority 2012, dated 2015).
Like-named read-outs stand apart in the source and are kept apart here. Marks after values point to notes of the source that are not given here.

Legend:
[1] = value from the literature, cited from earlier work
[2] = value from the literature, cited from earlier work; remark: listed apart in the source
[3] = from ref. 13; cited from earlier work
[4] = biological target: T1, rabbit muscle creatine kinase (Oryctolagus cuniculus, UniProt P00563); experiment: Kinetic studies on the reactivation of creatine kinase (reduction of mixed disulfide at Cys283); assay type: biochemical; conditions: creatine kinase-Cys283-S—S-glutathione; mean ± SE from three experiments
T1 construct: Cys283 in the active site of rabbit muscle creatine kinase; from tissue; host or cells: rabbit muscle
T1 sequence (P00563 whole entry): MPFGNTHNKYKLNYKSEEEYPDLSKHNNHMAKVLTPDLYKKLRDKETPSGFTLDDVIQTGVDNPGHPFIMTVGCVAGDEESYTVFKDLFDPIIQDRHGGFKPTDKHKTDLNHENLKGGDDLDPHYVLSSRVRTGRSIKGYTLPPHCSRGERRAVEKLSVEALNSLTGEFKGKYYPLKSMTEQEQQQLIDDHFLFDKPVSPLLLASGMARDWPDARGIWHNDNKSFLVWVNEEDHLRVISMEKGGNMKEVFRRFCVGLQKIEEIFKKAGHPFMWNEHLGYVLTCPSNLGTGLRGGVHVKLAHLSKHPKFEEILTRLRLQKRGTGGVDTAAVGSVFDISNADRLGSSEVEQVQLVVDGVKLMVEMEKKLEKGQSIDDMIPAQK
Protocol: Cys283 in the active site of rabbit muscle creatine kinase was oxidized as a mixed disulfide by a procedure described previously, [28] but with a slight modification in the measurement of active enzyme. A unit of enzyme was defined as the amount required to produce 1 μmol/min of NADPH. Using an extinction coefficient for NADPH of ε=6.22 mM^−cm^−1 at 340 nm, the units of active creatine kinase in solution at a particular time were calculated. […] Enzymatic activity (%) at particular times was calculated by dividing the number of active units of enzyme by the possible number of units in the solution, and was plotted as in FIG. 2B. Values of the second-order rate constant k were determined by using eq 4 as described in Example 9, and were the mean±SE from three experiments.

[5] = Kinetic studies on the reduction of oxidized L-glutathione; assay type: physicochemical; conditions: for kobs, second-order rate constant, reduction of oxidized L-glutathione: pH 7.0, 50 mM potassium phosphate buffer, mean ± SE from three experiments
Protocol: An experiment similar to that in Example 7 was conducted with disulfide=oxidized L-glutathione. Reactions were quenched at various time points (2, 4, 6, and 8 min) and 100 μL was analyzed by HPLC (1.0 mL/min with water (5.0 mL) in 0.1% v/v TFA, followed by a linear gradient (0-40% v/v) of acetonitrile in 0.1% v/v TFA over 40 min). The extent of reduction was determined by integrating the newly formed L-glutathione reduced peak at 220 nm (retention time of 7 min). Second-order rate constants were calculated from a linear fit of the data in FIG. 1B (that is, kobs=[(1/cfinal)−(1/cinitial)]/t). Rate constants were the mean±SE from three experiments.

[6] = Kinetic studies on the reduction of oxidized βME; assay type: physicochemical
Protocol: The observed second-order rate constant (kobs) for a thiol-disulfide interchange reaction was determined by adapting a procedure described previously. [2e] When the disulfide is oxidized βME, a 50 mM stock solution of potassium phosphate buffer was degassed and purged with N2(g) for 30 min immediately prior to use. […] Phosphate buffer (2.5 mL) was added to the round-bottom flask containing the dithiol. Oxidized βME stock solution (2.5 mL) was then added, and the reaction mixture was stirred at room temperature under N2(g) for 1 min. The reaction mixture was quenched by the addition of 0.10 mL of 3 N HCl. The reaction mixture was passed through a 4.5-μm filter, and 100 μL of the reaction mixture was analyzed immediately by HPLC using a Varian C18 reverse-phase column. The column was eluted at 1.0 mL/min with water (5.0 mL), followed by a linear gradient (0-40% v/v) of acetonitrile/water over 40 min. The extent of reduction was determined by integrating the newly formed peak corresponding to βME at 205 nm (retention time: 8 min). This process was repeated for reaction times of 2 and 4 min. Calibration curves were generated and found to be linear over the used concentration range. The amount of residual oxidized βME was calculated, and second-order rate constants were calculated from a linear fit of the data in FIG. 1A (that is, kobs=[(1/cfinal)−(1/cinitial)]/t). […] Rate constants were the mean±SE from three experiments.

Solubility in water = assay type: physicochemical; conditions: HCl salt
papaya latex papain = biological target: T2, papaya latex papain (Carica papaya, UniProt P00784); experiment: Kinetic studies on the reactivation of papain (reduction of mixed disulfide at Cys25); assay type: biochemical; conditions: 0.10 M imidazole-HCl buffer, pH 7.0, 2 mM EDTA; for kobs, second-order rate constant, reactivation of papain: mean ± SE from three experiments
T2 construct: Cys25 in the active site of papaya latex papain; from tissue; host or cells: papaya latex
T2 sequence (P00784 134-345): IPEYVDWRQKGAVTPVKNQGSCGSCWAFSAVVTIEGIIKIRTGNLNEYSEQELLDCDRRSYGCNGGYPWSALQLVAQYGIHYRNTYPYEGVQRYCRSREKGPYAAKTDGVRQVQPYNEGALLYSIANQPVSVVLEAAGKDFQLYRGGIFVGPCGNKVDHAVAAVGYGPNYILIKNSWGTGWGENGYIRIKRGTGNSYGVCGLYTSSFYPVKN
Protocol: Cys25 in the active site of papaya latex papain was oxidized as a mixed disulfide by a procedure described previously.[25] Briefly, a stock solution of methyl methanethiosulfonate (3.5 mM) was prepared by dilution of 5 μL of methyl methanethiosulfonate with 15 mL of 0.10 M potassium phosphate buffer, pH 7.0, containing EDTA (2 mM). KCl (0.011 g, 0.15 mmol) was added to 1.5 mL of this stock solution. The solution was deoxygenated by bubbling N2(g) through it for 15 min. Next, papain (5 mg, 150 units) was added, and the resulting solution was incubated at room temperature under N2(g) for 12 h. Excess methyl methanethiosulfonate was removed by size-exclusion chromatography using a Sephadex G-25 column. The final concentration of papain was determined by A280 using ε280=5.60×10^4 M^−1cm^−1. A solution (0.26 mL) of the chromatographed protein was diluted with 4.94 mL of deoxygenated aqueous buffer (0.10 M imidazole-HCl buffer, pH 7.0, containing 2 mM EDTA). Enzyme solution (1.25 mL) was then added to four separate vials. […] The rate of change in absorbance at 410 nm was recorded at 25° C. A unit of protein is defined by the amount of enzyme required to produce 1 μmol/min of 4-nitroaniline. Using an extinction coefficient for 4-nitroaniline of ε=8,800 M^−1cm^−1 at 410 nm, [27] the number of units of active papain in solution at each time point was calculated. […] Enzymatic activity (%) at particular times was calculated by dividing the number of active units of enzyme by the possible number of units in the solution, and was plotted as in FIG. 2A. To determine the value of the second-order rate constant kobs for the reducing agents, the second-order rate equation (eq 4) was transformed into eq 5, which was fitted to the data with the program PRISM 5.0. […] Values of kobs were the mean±SE from three experiments.

[7] = Determination of thiol pKa values (pH-titration monitored by absorbance at 238 nm); assay type: physicochemical; conditions: for pKa: potassium phosphate buffer, mean ± SE from this work
Protocol: The thiol pKa values of DTBA were determined by measuring its absorbance at 238 nm in solutions of different pH. The deprotonated thiolate absorbs much more strongly at 238 nm than does its protonated counterpart. [15a] This attribute was exploited for determining thiol pKa values as described previously. [15b] Buffered stock solutions of K3PO4, K2HPO4, and KH2PO4 (100 mM) were degassed and flushed with N2(g) for 1 h immediately prior to use. A stock solution of DTBA (1.5 mM) in KH2PO4 was then prepared. Various combinations of the buffered stock solutions were combined in duplicate to give two identical sets of 1-mL solutions of pH 5.5-11. KH2PO4 stock solution (70 μL) was added to each replicate pair of solutions and used to set the A238 to zero. Dithiol solution (70 μL) was then added to its complimentary 1-mL vial, and its absorbance at 238 nm was recorded. The pH of the solution was then immediately measured using a Beckman pH meter, which had been calibrated prior to use with pH 7 and pH 10 standard solutions from Fisher Scientific. This process was repeated multiple times to obtain a plot of A238 vs pH (FIG. 3).
pKa values were determined by fitting the data in FIG. 3 to eq 1, which is derived from Beer's law and the definition of the acid dissociation constant. [15b] In eq 1, CT is total thiol concentration, εSH^SH is the extinction coefficient of the doubly protonated form, εSH^S− is the extinction coefficient of the singly protonated form, and εS−^S−is the extinction coefficient of the unprotonated form. Both pKa values and extinction coefficients were determined from the curve fit.

[8] = Reduction potential (E°′) from HPLC redox equilibrium with oxidized DTT; assay type: physicochemical; conditions: for Keq for the reaction with oxidized DTT: 50 mM potassium phosphate buffer pH 7, 24 h, room temperature
Protocol: [2g] Data were obtained by a procedure similar to that described previously. [2g, 15b] […] The flask was then flushed with N2(g) for 30 min.
A 50 mM stock solution of potassium phosphate buffer (pH 7) was degassed and purged with N2(g) for 30 min immediately prior to use. Buffer (15 mL) was added, and the reaction mixture was stirred under N2(g) for 24 h at room temperature. The reaction mixture was then quenched by the addition of 3 N HCl (1:100 dilution). The reaction mixture was passed through a 4.5-μm filter, and 100 μL of the reaction mixture was analyzed immediately by HPLC using a Waters system equipped with a Waters 996 photodiode array detector, Empower 2 software, and a Varian C18 reverse-phase column. The column was eluted at 1.0 mL/min with water (5.0 mL), followed by a linear gradient (0-40% v/v) of acetonitrile/water over 40 min. Compounds were detected by their absorbance at 205 nm. Reduced and oxidized DTBA are highly polar and elute from the column immediately (as confirmed by LC-MS). Two peaks, however, were clearly visible in the chromatogram FIG. 4). […] Calibration curves were generated and found to be linear over the used concentration range.
The procedure described in Example 5 was also performed with BMS. […] A previously reported reduction potential for BMS was E°′=−0.31 V. [2g]

[9] = Separation using DOWEX 50WX4-400 ion-exchange resin (Ellman's assay of filtrate); assay type: physicochemical; conditions: 0.10 M sodium phosphate buffer, pH 8.0, 1 mM EDTA
Protocol: A reaction buffer (0.10 M sodium phosphate, pH 8.0, 1 mM EDTA) was prepared. Ellman's reagent solution was prepared by adding Ellman's reagent (4 mg) to 1 mL of the reaction buffer. Next, to 25 mL of reaction buffer (0.10 M sodium phosphate, pH 8.0, 1 mM EDTA) was added DTBA (2.2 mg, 1.27×10^−5 mol) and 1.7 g of DOWEX 50WX4-400 ion-exchange resin. The mixture was swirled for several minutes and filtered through a fritted syringe. Ellman's reagent solution (50 μL) was added to two separate vials containing 2.5 mL of reaction buffer. As a blank, 250 μL of reaction buffer was added to one of the vials, and the absorbance at 412 nm was set to zero. Filtrate (250 μL) was then added to the other vial and its absorbance was recorded. With A412=0.012 and using an extinction coefficient of ε=14,150 M^−1cm^−1, [24b, 24c] it was calculated that >99% of DTBA was retained by the resin and thus removed from solution. […] See Example 3 for a more detailed explanation of similar calculations using Ellman's assay.

[10] = pH 5.5, 50 mM potassium phosphate buffer
[11] = pH 7.0, 50 mM potassium phosphate buffer, mean ± SE from three experiments

Row | Compound | Disulfide Reduction Potential (E°′) [1] | Thiol pKa ([2]; lower (first) thiol pKa) | kobs, second-order rate constant, reactivation of creatine kinase [4] [M⁻¹ s⁻¹] | kobs, second-order rate constant, reduction of oxidized L-glutathione [5] [M⁻¹ s⁻¹] | kobs, second-order rate constant, reduction of oxidized βME [6, 10] [M⁻¹ s⁻¹] | kobs, second-order rate constant, reduction of oxidized βME [6, 11] [M⁻¹ s⁻¹] | kobs, second-order rate constant, reactivation of papain (papaya latex papain) [M⁻¹ s⁻¹] | Keq for the reaction with oxidized DTT [8] | Fraction removed from solution (retained) by Dowex 50 cation-exchange resin [9] [%] | further results
1 | OCCS [βME, β-mercaptoethanol] | −0.260 V^b | 9.61^a | – | – | – | – | – | – | – | –
2 | NCCS [Cysteamine] | −0.203 V^b | 8.37^c | – | – | – | – | – | – | – | Amino pKa [3]: 10.44
3 | N[C@H](CS)CCS [DTBA, (2S)-2-amino-1,4-dimercaptobutane] | – | – | 15.1 ± 1.0 | 0.83 ± 0.04 | 0.0093 ± 0.0003 | 0.29 ± 0.02 | 1342 ± 148 | 0.469±0.131 | > 99 | kobs^DTBA/kobs^DTT, reduction of oxidized L-glutathione (fold faster than DTT) ([5]; pH 7.0): 5.2; kobs^DTBA/kobs^DTT, reduction of oxidized βME (fold faster than DTT) ([6]; pH 5.5): 4.4; kobs^DTBA/kobs^DTT, reduction of oxidized βME (fold faster than DTT) ([6]; pH 7.0): 3.5; Solubility in water (Solubility in water): high solubility in water; kobs^DTBA/kobs^DTT, reduction of papain mixed disulfide (fold faster than DTT) (papaya latex papain): 14; pKa ([7]; lower (first) thiol pKa, 0.10 M potassium phosphate buffer): 8.2 ± 0.2; pKa ([7]; second (higher) thiol pKa, in parentheses in Table 1): 9.3 ± 0.1
4 | O[C@H](CS)[C@H](O)CS (racemic) [DTT, (2S,3S)-1,4-dimercaptobutane-2,3-diol] | – | – | 17.5 ± 1.6 | 0.16 ± 0.02 | 0.0021 ± 0.0002 | 0.084 ± 0.004 | 91.3 ± 9.4 | – | < 1 | Disulfide Reduction Potential (E°′) ([1]; listed as DTT (racemate)): −0.327 V^e; Residues in the reactive thiolate form ([7]; at pH 7): less than 1%; Thiol groups protonated (unreactive) ([7]; at pH 7, from lower thiol pKa […]): greater than 99%
5 | O=S(=O)(CCS)CCS [BMS, Bis(2-mercaptoethyl)sulfone] | −0.31 V | – | – | – | – | – | – | 0.0517±0.0194 | – | Thiol pKa ([2]; second (higher) thiol pKa): 9.0±0.2; Disulfide Reduction Potential (E°′) ([8]; 50 mM potassium phosphate buffer pH 7, equilibrium with oxidized DTT, assuming E°′=−0.327 V for DTT, mean ± SE from seven experiments): −0.291±0.002 V
